Measured values: patent EP1889617A1, “Triphenyl modified 5-membered heterocycles and their use as anticancer and antiflammatory agents” (Freie Universität Berlin, priority 2006, dated 2008)

Experiments:
MCF-7 cells = test: Cytotoxic effects, concentration dependent test (IC50), crystal violet staining; type: cell-based; details: Homo sapiens, MCF7; estrogen receptor positive MCF-7 cells; incubation of 72 h
Experimental: (§1) The cytotoxic assay in estrogen receptor positive MCF-7 cells has been described previously by Ruenitz, P.C. et al. (1997) J. Steroid Biochem. Mol. Biol. 63, 203-209). Fiation, staining and quantitation of the cells were carried out according to Gillies (Gillies, R.J. et al. (1986) Anal. Biochem. 159, 109-113) and Kueng (Kueng, W. et al. (1989) Anal. Biochem. 182, 16-19). Moreover the test was carried out with estrogen receptor negative MD-MB 231 cells. MCF-7 cells (MDA-MB 231 cells) from an almost confluent monolayer were harvest by trypsinization and suspended to approximately 7 x 10^3 cells/mL (1 x 10^3 cells/mL). At the beginning of the experiment, the cell suspension was transferred to 96-well microplates (100 µL/well). After cultivating them for 3 days at growing conditions the medium was removed and replaced by one containing the test compounds. Control wells (16/plate) were contained 0.1% of DMSO, which was used for the preparation of the stock solutions. The initial cell density was determined by addition of glutaric dialdehyde (1 % in PBS; 100 µL/well). After incubation for 3-7 days, the medium was removed, and glutaric dialdehyde (1 % in PBS; 100 µL/well) was added for fixation. After 15 min, the solution of the aldehyde was decanted and 180 µL PBS/well added. The plates were stored at 4°C until staining. Cells were stained by treating them for 25 min with 100 µL of an aqueous solution of crystal violet (0.02%). After decanting cells were washed several times with water to remove the adherent dye. After addition of 180 µL of ethanol (70%), plates were gently shaken for 4 h. Optical density of each well was measured in a microplate autoreader at 590 nm.
(§2) MCF-7 cells (MDA-MB 231 cells) from an almost confluent monolayer were harvested by trypsinization and suspended to approximately 10 × 10^3 cells/mL (5 x 10^3 cells/mL). After cultivating them for 3 days at growing conditions the medium was removed and replaced by one containing the test compounds (control wells 8/plate). After incubation of 72 h (48 h) the medium was removed and the test was continued as descried above.

MDA-MB 231 cells = test: as above; type: cell-based; details: Homo sapiens; estrogen receptor negative MDA-MB 231 cells; incubation of 48 h
Experimental: as §1, §2

[1] = target: T1, recombinant human estrogen receptor (hERα) (Homo sapiens, UniProt P03372); test: Recombinant ERα (HAP Assay): competitive binding against [3H]E2 on hydroxylapatite; details: hERα adsorbed on hydroxylapatite; test compound 10^-6 M; overnight at 4°C; percentage to a solvent treated control sample
T1 construct: purchased Calbiochem
T1 sequence (P03372 1-595): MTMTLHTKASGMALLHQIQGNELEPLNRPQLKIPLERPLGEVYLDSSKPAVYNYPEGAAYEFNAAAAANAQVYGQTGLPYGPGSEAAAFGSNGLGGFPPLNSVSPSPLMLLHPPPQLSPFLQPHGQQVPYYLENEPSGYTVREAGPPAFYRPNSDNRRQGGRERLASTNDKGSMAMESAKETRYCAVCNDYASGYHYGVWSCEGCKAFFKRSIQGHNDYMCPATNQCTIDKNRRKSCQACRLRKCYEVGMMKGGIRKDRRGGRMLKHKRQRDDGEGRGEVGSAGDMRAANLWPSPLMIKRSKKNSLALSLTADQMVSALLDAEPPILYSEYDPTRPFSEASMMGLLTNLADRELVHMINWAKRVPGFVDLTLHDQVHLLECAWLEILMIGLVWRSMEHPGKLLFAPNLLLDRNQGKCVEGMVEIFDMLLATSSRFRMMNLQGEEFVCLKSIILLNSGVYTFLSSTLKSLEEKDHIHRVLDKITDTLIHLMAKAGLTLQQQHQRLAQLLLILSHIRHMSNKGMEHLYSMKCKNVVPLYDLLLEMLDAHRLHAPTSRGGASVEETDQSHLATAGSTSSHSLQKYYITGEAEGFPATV
Experimental: (§3) ER binding affinity is measured in competitive binding assays compared to estradiol. Binding affinity is expressed as a relative binding affinity (RBA) in percent compared to estradiol which is assigned an affinity of 100%. Substantial affinity for ER is indicated by an RBA of about 0,1% or more. Good affinity binding to ER is indicated by an RBA of about 1%- to about 10%. High affinity binding to ER is indicated by an RBA of about 10% or higher.
An ethanolic solution (250 fmol/µL) of recombinant human estrogen receptor (hERα) (Calbiochem) was diluted with Tris-HCl buffer pH 8.0 (1:100). This hERα preparations adsorbed on hydroxylapatite pellets (prepared in 10 mmol/L Tris HCl buffer pH 8.0) which were labeled with increasing concentrations of the test compound (10^-10 - 10^-5 M) and [^3H]E2 (0.1 %) in presence or absence of 200-fold excess of unlabeled E2 and were incubated overnight at 4°C. Bond [^3H]E2 were then successively extracted with ethanol and aliquots of 200 µL of ethanolic extracts were transferred to scintillation vials containing 3.8 mL scintillator Ecoscint H (National Diagnostic, Atlanta) for radioactivity counting. The data interpretation was carried out as shown above.

estrogen receptor = target: T2, estrogen receptor (Homo sapiens, UniProt P03372); test: Whole Cell Assay (WCA): competitive estrogen receptor binding against [3H]17β-estradiol; details: test compound 10^-6 M, 1 h incubation (37°C), percentage to a solvent treated control sample
T2 construct: endogenous in cells; host or cells: MCF-7
T2 sequence (P03372 1-595): T1 sequence (P03372 1-595)
Experimental: as §3
MCF-7 cells were plated in 24-well dishes (4 x 10^4 cells/well) and cultured for 48 h. After the incubation the medium was replaced by test compounds diluted in serum free medium containing [^3H]17β-Estradiol ([^3H]E2). Additional wells of each test compound concentration were filled with 500-fold excess of unlabeled E2 for nonspecific binding measurements. After 1 h incubation (37°C) the medium was removed and monolayer washed three times with an ice-cold saline solution. Bond E2 was then extracted from the monolayer with 1 mL ethanol at room temperature (20 min of incubation) and aliquots of 200 µL of ethanolic extracts were transferred to scintillation vials containing 3.8 mL scintillator Ecoscint H (National Diagnostic, Atlanta) for radioactivity counting. All measurements were performed in duplicate. Specific [^3H]E2 incorporation into the cells was calculated from the difference in incorporated radioactivity after incubation in the absence or presence of an excess of unlabeled E2. The results (relative radioactivity) were expressed as a percentage to a solvent treated control sample.

Row | Relative radioactivity of labeled [^3H]E2; RBA-value HAP-Assay; 10^-6 M [1] | Relative radioactivity of labeled [^3H]E2; RBA-value MCF-7 cells (WCA); 10^-6 M (estrogen receptor) | SMILES | IC50 (MCF-7 cells) | IC50 (MDA-MB 231 cells)
1 |  |  | COc1ccc(-c2cc(-c3ccc(OC)cc3)c(-c3ccc(OC)cc3Cl)[nH]2)cc1 [Example 1, 2-(2-Chloro-4-methoxyphenyl)-3,5-bis(4-methoxyphenyl)-1H-pyrrole] | 17.7 µM | 27.4 µM
2 |  |  | COc1ccc(-c2cc(-c3ccc(OC)cc3Cl)[nH]c2-c2ccc(OC)cc2)cc1 [Example 2, 5-(2-Chloro-4-methoxyphenyl)-2,3-bis(4-methoxyphenyl)-1H-pyrrole] | 9.5 µM | 10.3 µM
3 | 26.4 ± 8.3% | 35.3 ± 4.9% | Oc1ccc(-c2cc(-c3ccc(O)cc3)c(-c3ccc(O)cc3Cl)[nH]2)cc1 [Example 7, 2-(2-Chloro-4-hydroxyphenyl)-3,5-bis(4-hydroxyphenyl)-1H-pyrrole] | 16.4 µM | 13.5 µM
4 | 19.1 ± 1.5% | 13.1 ± 3.2% | Oc1ccc(-c2cc(-c3ccc(O)cc3Cl)[nH]c2-c2ccc(O)cc2Cl)cc1 [Example 9, 2,5-Bis(2-chloro-4-hydroxyphenyl)-3-(4-hydroxyphenyl)-1H-pyrrole] | 7.6 µM | 13.4 µM
5 |  |  | Oc1ccc(-c2cc(-c3ccc(O)cc3)c(-c3ccc(Cl)cc3O)[nH]2)cc1 [Example 10, 2-(4-Chloro-2-hydroxyphenyl)-3,5-bis(4-hydroxyphenyl)-1H-pyrrole] | 9.2 µM | 18.8 µM
6 |  |  | Oc1ccc(-c2cc(-c3ccc(O)cc3Cl)[nH]c2-c2ccc(Cl)cc2O)cc1 [Example 11, 5-(2-Chloro-4-hydroxyphenyl)-2-(4-chloro-2-hydroxyphenyl)-3-(4-hydroxyphenyl)-1H-pyrrole] | 10.5 µM | 14 µM
7 | 70.3 ± 6.1% | 78.1 ± 4.4% | CCCc1c(-c2ccc(Cl)cc2O)[nH]c(-c2ccc(O)cc2)c1-c1ccc(O)cc1 [Example 12, 2-(4-Chloro-2-hydroxyphenyl)-4,5-bis(4-hydroxyphenyl)-3-propyl-1H-pyrrole] | 8.1 µM | 6.5 µM
8 |  |  | COc1ccc(-c2cc(-c3ccc(OC)cc3Cl)c(C)n2-c2ccc(OC)cc2)cc1 [Example 13, 4-(2-Chloro-4-methoxyphenyl)-1,2-bis(4-methoxyphenyl)-5-methyl-1H-pyrrole] | 23.6 µM | 20.3 µM
9 |  |  | COc1ccc(-c2cc(-c3ccc(OC)cc3Cl)c(CC(C)C)n2-c2ccc(OC)cc2)cc1 [Example 16, 4-(2-Chloro-4-methoxyphenyl)-5-isobutyl-1,2-bis(4-methoxyphenyl)-1H-pyrrole] | 18 µM | 15.2 µM
10 |  |  | CCCc1c(-c2ccc(OC)cc2F)cc(-c2ccc(OC)cc2)n1-c1ccc(OC)cc1 [Example 17, 4-(2-Fluoro-4-methoxyphenyl)-1,2-bis(4-methoxyphenyl)-5-propyl-1H-pyrrole] | 17.8 µM | 18.4 µM
11 |  |  | Cc1c(-c2ccc(O)cc2Cl)cc(-c2ccc(O)cc2)n1-c1ccc(O)cc1 [Example 18, 4-(2-Chloro-4-hydroxyphenyl)-1,2-bis(4-hydroxyphenyl)-5-methyl-1H-pyrrole] | 23.4 µM | 17.4 µM
12 | 30.1 ± 5.1% | 41.2 ± 8.3% | CCc1c(-c2ccc(O)cc2Cl)cc(-c2ccc(O)cc2)n1-c1ccc(O)cc1 [Example 19, 4-(2-Chloro-4-hydroxyphenyl)-5-ethyl-1,2-bis(4-hydroxyphenyl)-1H-pyrrole] | 17.8 µM | 18.4 µM
13 |  |  | CCCc1c(-c2ccc(O)cc2Cl)cc(-c2ccc(O)cc2)n1-c1ccc(O)cc1 [Example 20, 4-(2-Chloro-4-hydroxyphenyl)-1,2-bis(4-hydroxyphenyl)-5-propyl-1H-pyrrole] | 19.5 µM | 16.2 µM
14 |  |  | CC(C)Cc1c(-c2ccc(O)cc2Cl)cc(-c2ccc(O)cc2)n1-c1ccc(O)cc1 [Example 21, 4-(2-Chloro-4-hydroxyphenyl)-5-isobutyl-1,2-bis(4-hydroxyphenyl)-1H-pyrrole] | 15.2 µM | 16.1 µM
